These results are taken from patent US9926281B2 (priority 2014, dated 2018).

Usually IC50 stands for the concentration that gives 50% inhibition.

One assay addresses human TACE (Homo sapiens (Human), UniProt P78536). To be noted: read-out: TACE potency IC50.
In another assay the target is human ADAMTS-5 (Homo sapiens (Human), UniProt Q9UNA0). To be noted: read-out: hADAMTS-5 potency IC50.
Chain of human ADAMTS-5 (Q9UNA0 262-930): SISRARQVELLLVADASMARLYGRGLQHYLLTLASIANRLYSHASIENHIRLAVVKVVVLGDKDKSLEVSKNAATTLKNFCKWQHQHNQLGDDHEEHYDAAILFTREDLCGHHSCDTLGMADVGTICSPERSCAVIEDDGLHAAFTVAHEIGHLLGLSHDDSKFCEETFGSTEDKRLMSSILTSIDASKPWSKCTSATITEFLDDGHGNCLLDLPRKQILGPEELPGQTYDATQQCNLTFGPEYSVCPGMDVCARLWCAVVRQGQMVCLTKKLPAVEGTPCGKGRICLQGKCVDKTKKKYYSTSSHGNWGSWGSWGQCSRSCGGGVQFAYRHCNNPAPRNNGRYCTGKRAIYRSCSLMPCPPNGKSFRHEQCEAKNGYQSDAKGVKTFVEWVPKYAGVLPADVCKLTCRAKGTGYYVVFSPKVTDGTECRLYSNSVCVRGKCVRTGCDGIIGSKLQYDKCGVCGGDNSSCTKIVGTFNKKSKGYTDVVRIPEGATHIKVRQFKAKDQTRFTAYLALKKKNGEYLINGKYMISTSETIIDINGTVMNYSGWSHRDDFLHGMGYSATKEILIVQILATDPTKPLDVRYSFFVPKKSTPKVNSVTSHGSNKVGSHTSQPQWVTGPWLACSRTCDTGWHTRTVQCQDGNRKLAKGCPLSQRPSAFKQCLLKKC

Chain of human TACE (P78536 whole entry, looked up, change not shown): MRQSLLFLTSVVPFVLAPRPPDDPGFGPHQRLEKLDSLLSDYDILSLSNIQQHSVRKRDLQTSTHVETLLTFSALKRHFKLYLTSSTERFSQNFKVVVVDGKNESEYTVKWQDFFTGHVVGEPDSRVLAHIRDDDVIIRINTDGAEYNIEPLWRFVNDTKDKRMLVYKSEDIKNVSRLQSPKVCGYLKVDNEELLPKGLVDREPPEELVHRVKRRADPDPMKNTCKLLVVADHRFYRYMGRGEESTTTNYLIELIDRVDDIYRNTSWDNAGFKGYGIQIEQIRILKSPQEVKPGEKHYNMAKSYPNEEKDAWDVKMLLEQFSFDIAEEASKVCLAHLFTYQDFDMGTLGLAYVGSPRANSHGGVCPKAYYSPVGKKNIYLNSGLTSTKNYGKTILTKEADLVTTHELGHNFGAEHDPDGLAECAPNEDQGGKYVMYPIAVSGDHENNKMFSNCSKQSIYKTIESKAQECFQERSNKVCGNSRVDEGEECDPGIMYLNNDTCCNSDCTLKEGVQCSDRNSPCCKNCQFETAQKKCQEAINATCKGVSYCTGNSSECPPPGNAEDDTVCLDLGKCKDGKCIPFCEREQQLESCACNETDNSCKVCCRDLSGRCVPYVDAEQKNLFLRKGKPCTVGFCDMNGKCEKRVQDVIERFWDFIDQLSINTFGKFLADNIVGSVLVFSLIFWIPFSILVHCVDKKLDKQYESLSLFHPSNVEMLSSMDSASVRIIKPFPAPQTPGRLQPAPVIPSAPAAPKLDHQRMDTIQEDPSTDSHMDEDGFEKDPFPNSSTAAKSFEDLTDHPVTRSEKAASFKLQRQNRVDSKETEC
Method for human ADAMTS-5: Finally, the fluorescence is read on the Envision (Perkin Elmer) after an incubation of 90 min at 37° C.

For the molecule `C[C@H]1CN(C(=O)CCC2(C3CC3)NC(=O)NC2=O)CCN1c1cc(F)cc(C#N)c1` (stereo partly drawn) [compound 334, 3-[(2S)-4-[3-(4-cyclopropyl-2,5-dioxo-imidazolidin-4-yl)propanoyl]-2-methyl-piperazin-1-yl]-5-fluoro-benzonitrile], the results for the IC50 at human TACE and on human ADAMTS-5 were greater than 20 µM and 0.43 µM, respectively.

In the case of `COc1cccc(C2(CCC(=O)N3CCN(c4cc(F)cc(F)c4)[C@@H](C)C3)NC(=O)NC2=O)n1` (stereo partly drawn) [compound 336, 5-[3-[(3S)-4-(3,5-difluorophenyl)-3-methyl-piperazin-1-yl]-3-oxo-propyl]-5-(6-methoxy-2-pyridyl)imidazolidine-2,4-dione], the figures for the IC50 at human TACE and at human ADAMTS-5 were greater than 4 µM and 0.074 µM, respectively.

For `C[C@H]1CN(C(=O)CCC2(C3CC3)NC(=O)NC2=O)CCN1c1cnc2ccn(C)c2c1` (stereo partly drawn) [compound 337, 5-cyclopropyl-5-[3-[(3S)-3-methyl-4-(1-methylpyrrolo[3,2-b]pyridin-6-yl)piperazin-1-yl]-3-oxo-propyl]imidazolidine-2,4-dione], the IC50 is greater than 20 µM at human TACE and 0.764 µM at human ADAMTS-5.

Regarding `C[C@H]1CN(C(=O)CCC2(C3CC3)NC(=O)NC2=O)CCN1c1cc(F)cc(-c2cn[nH]c2)c1` (stereo partly drawn) [compound 338, 5-cyclopropyl-5-[3-[(3S)-4-[3-fluoro-5-(1H-pyrazol-4-yl)phenyl]-3-methyl-piperazin-1-yl]-3-oxo-propyl]imidazolidine-2,4-dione], the IC50 at human TACE was greater than 4 µM; at human ADAMTS-5 it was 0.06 µM.

For the molecule `C[C@H]1CN(C(=O)CCC2(C3CC3)NC(=O)NC2=O)CCN1c1ccc(F)c(-c2cn[nH]c2)c1` (stereo partly drawn) [compound 340, 5-cyclopropyl-5-[3-[(3S)-4-[4-fluoro-3-(1H-pyrazol-4-yl)phenyl]-3-methyl-piperazin-1-yl]-3-oxo-propyl]imidazolidine-2,4-dione], the IC50 at human TACE is greater than 4 µM; at human ADAMTS-5, 0.155 µM.

With `C[C@H]1CN(C(=O)CCC2(C3CC3)NC(=O)NC2=O)CCN1c1ccc2cnn(C)c2c1` (stereo partly drawn) [compound 341, 5-cyclopropyl-5-[3-[(3S)-3-methyl-4-(1-methylindazol-6-yl)piperazin-1-yl]-3-oxo-propyl]imidazolidine-2,4-dione], the IC50 on human TACE amounted to 0.885 µM; on human ADAMTS-5, 0.264 µM.

`CC(CC1(C2CC2)NC(=O)NC1=O)C(=O)N1CCN(c2ccc(F)cc2)[C@@H](C)C1` (stereo partly drawn) [compound 343, 5-cyclopropyl-5-[3-[(3S)-4-(4-fluorophenyl)-3-methyl-piperazin-1-yl]-2-methyl-3-oxo-propyl]imidazolidine-2,4-dione]: the IC50 at human TACE is greater than 20 µM; at human ADAMTS-5, 0.022 µM.

In the case of `Cc1nc(N2CCN(C(=O)CCC3(C4CC4)NC(=O)NC3=O)C[C@@H]2C)no1` (stereo partly drawn) [compound 344, 5-cyclopropyl-5-[3-[(3S)-3-methyl-4-(5-methyl-1,2,4-oxadiazol-3-yl)piperazin-1-yl]-3-oxo-propyl]imidazolidine-2,4-dione], the IC50 on human TACE and at human ADAMTS-5 was greater than 20 µM each time.

Turning to `C[C@H]1CN(C(=O)CCC2(c3ccccn3)NC(=O)NC2=O)CCN1c1cccc(F)c1` (stereo partly drawn) [compound 345, 5-[3-[(3S)-4-(3-fluorophenyl)-3-methyl-piperazin-1-yl]-3-oxo-propyl]-5-(2-pyridyl)imidazolidine-2,4-dione], the IC50 at human TACE is greater than 4 µM; on human ADAMTS-5, 0.05 µM.

Take `C[C@H]1CN(C(=O)CCC2(c3ccccn3)NC(=O)NC2=O)CCN1c1ccc(Cl)c(Cl)c1` (stereo partly drawn) [compound 347, 5-[3-[(3S)-4-(3,4-dichlorophenyl)-3-methyl-piperazin-1-yl]-3-oxo-propyl]-5-(2-pyridyl)imidazolidine-2,4-dione]: the results for the IC50 on human TACE and at human ADAMTS-5 were 2.38 µM and 0.021 µM, respectively.

For `C[C@H]1CN(C(=O)CCC2(c3ccccn3)NC(=O)NC2=O)CCN1c1cc(F)cc(F)c1` (stereo partly drawn) [compound 348, 5-[3-[(3S)-4-(3,5-difluorophenyl)-3-methyl-piperazin-1-yl]-3-oxo-propyl]-5-(2-pyridyl)imidazolidine-2,4-dione], the values for the IC50 on human TACE and at human ADAMTS-5 were greater than 4 µM and 0.034 µM, respectively.

With `C[C@H]1CN(C(=O)CCC2(c3cnccn3)NC(=O)NC2=O)CCN1c1ccc(F)c(Cl)c1` (stereo partly drawn) [compound 349, 5-[3-[(3S)-4-(3-chloro-4-fluoro-phenyl)-3-methyl-piperazin-1-yl]-3-oxo-propyl]-5-pyrazin-2-yl-imidazolidine-2,4-dione], the IC50 was greater than 4 µM on human TACE and 0.062 µM on human ADAMTS-5.

`Cc1noc(N2CCN(C(=O)CCC3(C4CC4)NC(=O)NC3=O)C[C@@H]2C)n1` (stereo partly drawn) [compound 352, 5-cyclopropyl-5-[3-[(3S)-3-methyl-4-(3-methyl-1,2,4-oxadiazol-5-yl)piperazin-1-yl]-3-oxo-propyl]imidazolidine-2,4-dione]: the IC50 on human TACE and at human ADAMTS-5 was greater than 20 µM in each case.

In the case of `Cc1nc(C2(CCC(=O)N3CCN(c4cc(F)cc(F)c4)[C@@H](C)C3)NC(=O)NC2=O)c[nH]1` (stereo partly drawn) [compound 354, 5-[3-[(3S)-4-(3,5-difluorophenyl)-3-methyl-piperazin-1-yl]-3-oxo-propyl]-5-(2-methyl-1H-imidazol-4-yl)imidazolidine-2,4-dione], the IC50 on human TACE and at human ADAMTS-5 was greater than 20 µM throughout.

On to `COc1ccc(C2(CCC(=O)N3CCN(c4cc(F)cc(F)c4)[C@@H](C)C3)NC(=O)NC2=O)cn1` (stereo partly drawn) [compound 356, 5-[3-[(3S)-4-(3,5-difluorophenyl)-3-methyl-piperazin-1-yl]-3-oxo-propyl]-5-(6-methoxy-3-pyridyl)imidazolidine-2,4-dione], for which the IC50 was greater than 4 µM on human TACE and 0.04 µM at human ADAMTS-5.

Regarding `CCC1(CC(C)C(=O)N2CCN(c3cncc(F)c3)[C@@H](C)C2)NC(=O)NC1=O` (stereo partly drawn) [compound 360, 5-ethyl-5-[3-[(3S)-4-(5-fluoro-3-pyridyl)-3-methyl-piperazin-1-yl]-2-methyl-3-oxo-propyl]imidazolidine-2,4-dione], the IC50 at human TACE is greater than 20 µM; on human ADAMTS-5, 0.119 µM.

Take `C[C@H]1CN(C(=O)CCC2(c3cn(C)cn3)NC(=O)NC2=O)CCN1c1cc(F)cc(F)c1` (stereo partly drawn) [compound 361, 5-[3-[(3S)-4-(3,5-difluorophenyl)-3-methyl-piperazin-1-yl]-3-oxo-propyl]-5-(1-methylimidazol-4-yl)imidazolidine-2,4-dione]: the values for the IC50 at human TACE and at human ADAMTS-5 were greater than 20 µM and 0.051 µM, respectively.

With `C[C@H]1CN(C(=O)CCC2(c3cocn3)NC(=O)NC2=O)CCN1c1cc(F)cc(F)c1` (stereo partly drawn) [compound 362, 5-[3-[(3S)-4-(3,5-difluorophenyl)-3-methyl-piperazin-1-yl]-3-oxo-propyl]-5-oxazol-4-yl-imidazolidine-2,4-dione], the IC50 is greater than 20 µM at human TACE and 0.05 µM at human ADAMTS-5.

`COCC1(CC(C)C(=O)N2CCN(c3cncc(Cl)c3)[C@@H](C)C2)NC(=O)NC1=O` (stereo partly drawn) [compound 363, 5-[3-[(3S)-4-(5-chloro-3-pyridyl)-3-methyl-piperazin-1-yl]-2-methyl-3-oxo-propyl]-5-(methoxymethyl)imidazolidine-2,4-dione]: the IC50 was greater than 12 µM on human TACE and 0.076 µM on human ADAMTS-5.

For the molecule `COCC1(CC(C)C(=O)N2CCN(c3ccc(F)cc3)[C@@H](C)C2)NC(=O)NC1=O` (stereo partly drawn) [compound 366, 5-[3-[(3S)-4-(4-fluorophenyl)-3-methyl-piperazin-1-yl]-2-methyl-3-oxo-propyl]-5-(methoxymethyl)imidazolidine-2,4-dione], the IC50 is greater than 4 µM on human TACE and 0.036 µM at human ADAMTS-5.

On to `C[C@H]1CN(C(=O)CCC2(C3CC3)NC(=O)NC2=O)CCN1c1cccc(-c2ccnn2C)c1` (stereo partly drawn) [compound 368, 5-cyclopropyl-5-[3-[(3S)-3-methyl-4-[3-(2-methylpyrazol-3-yl)phenyl]piperazin-1-yl]-3-oxo-propyl]imidazolidine-2,4-dione], for which the IC50 on human TACE is greater than 20 µM; on human ADAMTS-5, 0.257 µM.

As for `Cc1noc(C)c1-c1cccc(N2CCN(C(=O)CCC3(C4CC4)NC(=O)NC3=O)C[C@@H]2C)c1` (stereo partly drawn) [compound 369, 5-cyclopropyl-5-[3-[(3S)-4-[3-(3,5-dimethylisoxazol-4-yl)phenyl]-3-methyl-piperazin-1-yl]-3-oxo-propyl]imidazolidine-2,4-dione], the IC50 at human TACE was greater than 20 µM; on human ADAMTS-5, 1.08 µM.

As to `CC(C)n1cc(-c2cccc(N3CCN(C(=O)CCC4(C5CC5)NC(=O)NC4=O)C[C@@H]3C)c2)cn1` (stereo partly drawn) [compound 370, 5-cyclopropyl-5-[3-[(3S)-4-[3-(1-isopropylpyrazol-4-yl)phenyl]-3-methyl-piperazin-1-yl]-3-oxo-propyl]imidazolidine-2,4-dione], the IC50 was greater than 20 µM on human TACE and 0.532 µM at human ADAMTS-5.

Turning to `C[C@H]1CN(C(=O)CCC2(C3CC3)NC(=O)NC2=O)CCN1c1cnnc(Cl)c1` (stereo partly drawn) [compound 373, 5-[3-[(3S)-4-(6-chloropyridazin-4-yl)-3-methyl-piperazin-1-yl]-3-oxo-propyl]-5-cyclopropyl-imidazolidine-2,4-dione], the IC50 at human TACE was greater than 20 µM; on human ADAMTS-5, 1.53 µM.

Consider `C[C@H]1CN(C(=O)CCC2(C3CC3)NC(=O)NC2=O)CCN1c1ccn(C)n1` (stereo partly drawn) [compound 374, 5-cyclopropyl-5-[3-[(3S)-3-methyl-4-(1-methylpyrazol-3-yl)piperazin-1-yl]-3-oxo-propyl]imidazolidine-2,4-dione], for which the IC50 on human TACE is greater than 20 µM; on human ADAMTS-5, 3.08 µM.

For the molecule `COC[C@]1(CC(C)C(=O)N2CCN(c3cc(F)cc(-c4cn[nH]c4)c3)[C@@H](C)C2)NC(=O)NC1=O` (stereo partly drawn) [compound 376, 5-[3-[(3S)-4-[3-fluoro-5-(1H-pyrazol-4-yl)phenyl]-3-methyl-piperazin-1-yl]-2-methyl-3-oxo-propyl]-5-(methoxymethyl)imidazolidine-2,4-dione], the IC50 is 2.43 µM on human TACE and 0.052 µM at human ADAMTS-5.

Regarding `C[C@H]1CN(C(=O)CCC2(C3CC3)NC(=O)NC2=O)CCN1c1cccc(-c2cncnc2)c1` (stereo partly drawn) [compound 377, 5-cyclopropyl-5-[3-[(3S)-3-methyl-4-(3-pyrimidin-5-ylphenyl)piperazin-1-yl]-3-oxo-propyl]imidazolidine-2,4-dione], the IC50 was greater than 20 µM on human TACE and 0.7 µM at human ADAMTS-5.
